Experimental data as given in patent publication EP0366451A2, “The use of oxidized polyamines, especially NN'-Bis-(3-propionaldehyde)-1-4-diaminobutane (sperminedialdehyde) as immunosuppressive agents” (ORTHO PHARMACEUTICAL CORPORATION, priority 1988, dated 1990).

Experiments:
Human T lymphocytes = assay: PHA driven human T cell proliferation after 1 hour incubation; type: cell-based; settings: 0.62 x 10⁻² mM, 1 hour at 37°C, washed; Figure 1
Description: Human T & B lymphocytes were incubated separately with different concentrations of spermine dialdehyde in vitro for 1 hour. Cells were washed extensively and set up in a PHA (for T cell) or PWM (B cell) proliferation assay. A graph is depicted wherein percentage of response is plotted as a function of concentration of spermine dialdehyde.
Peripheral blood lymphocytes (PBL) were obtained from the blood of normal donors by using standard Ficoll-Hypaque gradient techniques. The T and non-T cells were separated by standard sheep red blood cell (SRBC) rosetting technique. Briefly, 5 x 10⁶/ml PBL were incubated with 1% neuraminidase-treated SRBC, and rosetted cells were separated from non-rosetted cells in a Ficoll-Hypaque gradient. The rosetted cells were designated as T cells. Purified B lymphocytes were obtained from non-rosetted cells by removal of residual T cells using the Pan T monoclonal antibody OKT 11 and complement.
T cell proliferation: 7 x 10⁴ - 10⁵ human T lymphocytes were cultured in flat bottom microtiter plates (Flow) in the presence of 0.1% PHA-P or 1/64 PWM for 4 days. 3H-thymidine (0.1 MCi/well) was added for the last 6 hours of the culture period. […] Cell associated radioactivity was determined by scintillation counting in an automated counter. All of the results were expressed as % response calculated according to the formula: [formula] […]

[1] = system: lethally irradiated AKR mice; assay: Bone marrow transplantation with ex vivo treated graft (GVHD, survival); type: in vivo
Description: C57BL spleen and bone marrow cell mixtures were treated with different concentrations of spermine dialdehyde or control preparation and injected i.v. into lethally irradiated AKR mice. A graph is depicted wherein percentage survival is scored as a function of time.
In bone marrow transplantation, bone marrow cells from normal donor mice were transplanted to totally histoincompatible and lethally irradiated recipients. All recipient mice received 9.5 Gy (950 rads) total body irradiation on day 0 and were then housed in microisolator cages thereafter. They were given autoclaved rodent laboratory chow throughout the whole study and also were allowed to feed ad libitum. Recipients also received 1.5 mg/kg of gentamicin subcutaneously for 20 days after irradiation. On the day of irradiation, bone marrow cells mixed in 3:1 ratio with spleen cells were removed from donors and incubated for an hour with different concentrations of spermine dialdehyde for 1 hour. Spleen cells were added to intensify subsequent graft vs. host disease (GVHD). After incubation, cells were washed 3 times and then injected intravenously into irradiated recipients. Signs of GVHD and survival were scored every day thereafter.
Bone marrow and spleen cell mixtures (3:1 ratio) from C57BL mice were incubated with control preparation or various concentrations of spermine dialdehyde for 1 hour Cells were then washed extensively and injected intravenously into lethally irradiated histoincompatible AKR mice. Signs of graft vs. host diseases such as hunched back, diarrhea, alopecia, and physical conditions were recorded daily. […] Thus treatment with lower doses of spermine dialdehyde inactivated T lymphocytes without being toxic to marrow celis and allowed animals to reconstitute with little sign of GVHD.

B6D2F1 mice = assay: Delayed type hypersensitivity to SRBC, footpad swelling; type: in vivo
Description: Delayed type hypersensitivity was induced in the footpad of B6D2F1 mice and swelling measured in mm. Spermine dialdehyde was administered i.p. and i.m. at various timeperiods.
Delayed type hypersensitivity was induced in the footpad of B6D2F1 mice by using sheep red blood cells (SRBC) as the antigen. Briefly, 0.2 ml of 0.01% SRBC was injected i.v. into B6D2F1 mice. Four days later, they were challenged in the footpad with 50 µl of 20% SRBC. Swelling of the footpad was measured 24, 48, and 72 hours later. Spermine dialdehyde was administered i.p. initiating from the day before immunization. After challenge in the footpad, B6D2F1 mice were given an intramuscular (i.m.) injection beside the challenge site one hour after challenge. Some mice received no i.p. administration and were only given one i.m. injection after the challenge.

[2] = system: Cytosolic ALDH in mouse liver; assay: NAD-linked cytosolic ALDH assay, mouse liver; type: biochemical
Description: Cultured murine leukemic cells and livers (excised from mice immediately after cervical dislocation) were homogenized in 3 volumes of ice-cold 1.15% KCl and 1 mM EDTA. The homogenate was centrifuged at 100,000 g for 45 min and the resulting supernatant was used to measure cytosolic ALDH activity. For particulate ALDH assay, the pellet (and homogenate for total ALDH) was resuspended in homogenizing buffer and treated with 0.25% Triton X-100 for 30 min at 4°C. The solubilized preparations were centrifuged at 48,000 g for 30 min and the supernatants were drawn off for ALDH determinations.
ALDH activity was measured by monitoring the reduction of NAD or NADp for 5-6 min at […] at 37°C in DU70 spectrophotometer (Beckman). The assay mixture contained 50 mM potassium phosphate buffer, pH 7.4, 2.0 mM NAD (or NADP) and 1.0 mM EDTA. The reaction was started by adding the substrate (SDA or other aldehyde) to the prewarmed (5 min at 37°C) assay mixture containing enzyme preparation. Pyrazole (0.1 mM) was added particularly for liver enzyme, to inhibit alcohol dehydrogenase. The apparent Km and maximum velocity (Vmax) values were calculated using a Lineweaver-Burk plot based on the estimation of the slope by regression analysis. Enzyme activity was expressed as mU (nmoles/min) per mg of protein. Protein contents were determined by the Bradford method, using bovine serum albumin as the standard.

With O=CCCNCCCCNCCC=O [SDA, NN′-Bis-(3-propionaldehyde)-1-4-diaminobutane] the “inhibited T cell proliferation” value (Human T lymphocytes) was 85%, the “signs of GVHD” value ([1]; bone marrow treated ex vivo for 1 hour) was “only mild signs of GVHD” and the survival time ([1]; marrow treated ex vivo with lower doses (0.03-0.06), Figure 3) was “significantly prolonged survival time”. The marrow toxicity ([1]; very high dose groups of 0.2mM, ex vivo treatment) was “exhibited marrow toxicity”, the footpad swelling (B6D2F1 mice; given both systemically (i.p.) and locally (i.m.), 24 or 48 hours after challenge, Figure 7) was “reduced swelling” and the footpad swelling (B6D2F1 mice; given only after challenge, 24 hours later) was “swelling similar to that of mice receiving control vehicles”. The footpad swelling (B6D2F1 mice; given only after challenge, 48 hours later) was “reduced swelling compared to that of the control group”, the “specific activity of ALDH, liver compared to L1210 cells” value ([2]; SDA as substrate, per mg protein) was 1.5 times and the Km ([2]; as substrate, mouse liver cytosol, NAD, ± SEM, 3-4 experiments) was 48.5 µM. For the same compound, the “Specific (activity of ALDH)” value ([2]; as substrate, mouse liver cytosol, propionaldehyde 1.0 mM) was 10.5 ± 3.2 mU/mg Protein.
